In the assay the target is T1, Kir6.2 channel (Mus musculus, UniProt Q61743).
T1 construct: expressed in transfected cells; host or cells: Neuro2A (N2A) cells, transient transfection with pcDNA3.1-Kir6.2 (gift of Dr. Toru Ishizuka, Tohoku University)
T1 sequence (Q61743 1-390): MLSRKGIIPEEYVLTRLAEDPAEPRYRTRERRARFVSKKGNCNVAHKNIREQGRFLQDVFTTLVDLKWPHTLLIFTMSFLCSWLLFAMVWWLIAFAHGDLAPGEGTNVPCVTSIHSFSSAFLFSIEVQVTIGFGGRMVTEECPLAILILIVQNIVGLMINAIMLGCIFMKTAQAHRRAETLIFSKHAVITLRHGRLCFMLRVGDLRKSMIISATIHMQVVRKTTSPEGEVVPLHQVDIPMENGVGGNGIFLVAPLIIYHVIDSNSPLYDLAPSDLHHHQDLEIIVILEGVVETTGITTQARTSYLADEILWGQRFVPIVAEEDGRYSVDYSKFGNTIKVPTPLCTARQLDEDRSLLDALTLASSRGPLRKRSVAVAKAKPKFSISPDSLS
As to the kind of experiment: CaMKII activation in N2A cells overexpressing Kir6.2 channel (immunoblotting, anti-phosphorylated CaMKII antibody). The class given is cell-based. The settings on record: 10 nM, one hour, Kir6.2 channel overexpressing N2A cells; control without compound = 100%. As to the method:
A plasmid vector having cDNA of Kir6.2 channel inserted therein: pcDNA3.1-Kir6.2, was obtained from Dr. Toru Ishizuka (Graduate School of Life Sciences, Tohoku University). The plasmid vector, pcDNA3.1-Kir6.2, was conditioned in accordance with the manual attached to GenElute HP Plasmid Maxiprep Kit (manufactured by Sigma-Aldrich). A culture solution (composition: DMEM culture solution 450 mL containing 50 ml of bovine serum and 100 units of penicillin/streptomycin) of Neuro2A cells (N2A cells, the National Instituted of Biomedical Innovation) cultured in DMEM culture solution (Gibco) was exchanged with Opti-Mem (Gibco)(containing Lipofectamine R2000 (1 μg/1 ml)) containing pcDNA3.1-Kir6.2 (1 μg/μl) conditioned above, and cultured for 5 hours to obtain N2A cells overexpressing Kir6.2 channel. Exchange with the DMEM culture solution was again performed and culture was carried out for two days. Thereafter, memantine (manufactured by Sigma-Aldrich) and the compound of the present invention (n=4 per group) were added in the culture solutions (DMEM, Gibco) so as to obtain a concentration of 10 nM based on the culture solution, and the culture solutions were allowed to stand still for one hour. Thereafter, Kir6.2 channel overexpressing N2A cells were collected and an SDS sample buffer was added to the N2A cells to prepare a suspension. The suspension was subjected to immunoblotting by use of an anti-phosphorylated CaMKII antibody (Fukunaga K et al., J. Biol. Chem. 1992, 267, 22527-22533) as a primary antibody and an anti-rabbit IgG antibody (manufactured by SouthernBiotech) as a secondary antibody (other conditions except the aforementioned antibodies were the same as those employed in ordinary immunoblotting), to investigate activation of CaMKII. As a result, in TP-009, TP-010, TP-011, TP-012, TP-014, TP-015, TP-048, TP-049, TP-050, TP-051, TP-052, TP-053, bands showing a reaction with the antibody against phosphorylated CaMKII were obtained. It was confirmed that activation of CaMKII is enhanced. In FIG. 1, the result of the case (control: c) where a test compound was not added is regarded as 100%. CaMKII activation of the cases containing memantine, TP-009, TP-010, TP-011, TP-012, TP-014, TP-015, TP-048, TP-049, TP-050, TP-051, TP-052, TP-053 (corresponding to M, 9, 10, 11, […], 15, 48, 49, 50, 51, 52 and 53, respectively) were shown in FIG. 1.
On the technique in general: Immunoblotting shows a protein as a band on a membrane.

The structures appear in SMILES notation.

Consider `CC(=O)O[C@@H](c1ccccc1)[C@@H]1[C@@H]2C[C@H]3C[C@@](N=[N+]=[N-])(C2)C[C@]1(O)C3` [TP-009, (R)-((1R,2S,3R,5R,7S)-5-azido-1-hydroxyadamantan-2-yl)(phenyl)methyl acetate], for which the “activation of CaMKII (phosphorylated CaMKII bands)” value (shortened to “activation of CaMKII”) is reported as “enhanced”.

Regarding `CCOC(=O)[C@@H](NC(C)=O)[C@@H]1[C@@H]2C[C@H]3C[C@@](Cl)(C2)C[C@]1(O)C3` [TP-010, ethyl (S)-2-acetamido-2-((1R,2S,3R,5R,7R)-5-chloro-1-hydroxyadamantan-2-yl)acetate], the “activation of CaMKII” value is listed as “enhanced”.

Consider `CCOC(=O)[C@H](NC(C)=O)[C@@H]1[C@@H]2C[C@H]3C[C@@](Cl)(C2)C[C@]1(O)C3` [TP-011, ethyl (R)-2-acetamido-2-((1R,2S,3R,5R,7R)-5-chloro-1-hydroxyadamantan-2-yl)acetate], for which the “activation of CaMKII” value is “enhanced”.

Take `COC(=O)[C@@H](NC(=O)C(F)(F)F)[C@@H]1[C@@H]2C[C@H]3C[C@@](Cl)(C2)C[C@]1(OC(=O)C(F)(F)F)C3` [TP-012, (1R,2S,3R,5R,7R)-5-chloro-2-((S)-2-methoxy-2-oxo-1-(2,2,2-trifluoroacetamido)ethyl)adamantan-1-yl 2,2,2-trifluoroacetate]: the “activation of CaMKII” value is given as “enhanced”.

On to `N[C@H](C(=O)O)[C@@H]1[C@@H]2C[C@H]3C[C@@](O)(C2)C[C@]1(O)C3` [TP-015, (S)-2-amino-2-((1R,2S,3R,5R,7S)-1,5-dihydroxyadamantan-2-yl)acetic acid], for which the “activation of CaMKII” value is recorded as “enhanced”.

On to `O=C(N[C@@H](c1ccccc1)[C@H]1[C@H]2C[C@@H]3C[C@](Cl)(C2)C[C@@]1(O)C3)C(F)(F)F` [TP-048, N—((R)-((1S,2R,3S,5S,7S)-5-chloro-1-hydroxyadamantan-2-yl)(phenyl)methyl)-2,2,2-trifluoroacetamide], for which the “activation of CaMKII” value is listed as “enhanced”.

With `O=C(N[C@@H](c1ccccc1)[C@H]1[C@@H]2C[C@H]3C[C@@H](C2)C[C@]1(OC(=O)C(F)(F)F)C3)C(F)(F)F` [TP-049, (1S,2R,3S,5R,7S)-2-((R)-phenyl(2,2,2-trifluoroacetamido)methyl)adamantan-1-yl 2,2,2-trifluoroacetate], the “activation of CaMKII” value is given as “enhanced”.

On to `COCCO[C@@]12C[C@H]3C[C@@H](C1)[C@H]([C@@H](NC(=O)C(F)(F)F)c1ccccc1)[C@](OC(=O)C(F)(F)F)(C3)C2` [TP-050, (1S,2R,3S,5S,7R)-5-(2-methoxyethoxy)-2-((R)-phenyl(2,2,2-trifluoroacetamido)methyl)adamantan-1-yl 2,2,2-trifluoroacetate], for which the “activation of CaMKII” value is reported as “enhanced”.

Regarding `O=C(N[C@@H](c1cccnc1)[C@H]1[C@H]2C[C@@H]3C[C@](Cl)(C2)C[C@@]1(O)C3)C(F)(F)F` [TP-051, N—((R)-((1S,2R,3S,5S,7S)-5-chloro-1-hydroxyadamantan-2-yl)(pyridin-3-yl)methyl)-2,2,2-trifluoroacetamide], the “activation of CaMKII” value was “enhanced”.

With `O=C(N[C@@H](c1ccccc1)[C@H]1[C@@H]2C[C@H]3C[C@@H](C2)C[C@]1(O)C3)C(F)(F)F` [TP-052, 2,2,2-trifluoro-N—((R)—((S,2R,3S,5R,7S)-1-hydroxyadamantan-2-yl)(phenyl)methyl) acetamide], the “activation of CaMKII” value is recorded as “enhanced”.

With `CO[C@@]12C[C@H]3C[C@@H](C1)[C@H]([C@@H](NC(=O)C(F)(F)F)c1ccccc1)[C@](OC(=O)C(F)(F)F)(C3)C2` [TP-053, (1S,2R,3S,5S,7R)-5-methoxy-2-((R)-phenyl(2,2,2-trifluoroacetamido)methyl)adamantan-1-yl 2,2,2-trifluoroacetate], the “activation of CaMKII” value is “enhanced”.

(Values after patent US10487045B2, “Adamantane derivative and use thereof” (TOHOKU UNIVERSITY, priority 2016, dated 2019).)
